PubChem BioAssay (NCI)
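Growth conditions: 96-well plates. Treatment: test compound, 48 hours, 5 concentrations. Analysis: linear interpolation between bracketing concentrations; unreached endpoints set to highest concentration. At the TGI there is no net growth.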

Experiments:
Assay in all cases: NCI tumour cell line growth inhibition, 48 h
A498 renal = test system: A498 renal
EKVX NSCLC = test system: EKVX NSCLC
COLO 205 colon = test system: COLO 205 colon
786-0 renal = test system: 786-0 renal
HT29 colon = test system: HT29 colon
KM12 colon = test system: KM12 colon
OVCAR-3 ovarian = test system: OVCAR-3 ovarian
MALME-3M melanoma = test system: MALME-3M melanoma
SF-539 CNS = test system: SF-539 CNS
MDA-MB-435 = test system: MDA-MB-435
SK-MEL-28 melanoma = test system: SK-MEL-28 melanoma
CCRF-CEM leukemia = test system: CCRF-CEM leukemia
HOP-92 NSCLC = test system: HOP-92 NSCLC
MCF7 breast = test system: MCF7 breast
HCC-2998 colon = test system: HCC-2998 colon
SK-OV-3 ovarian = test system: SK-OV-3 ovarian
SR leukemia = test system: SR leukemia
NCI/ADR-RES ovarian = test system: NCI/ADR-RES ovarian
SW-620 colon = test system: SW-620 colon
DU-145 prostate = test system: DU-145 prostate
NCI-H460 lung = test system: NCI-H460 lung
SF-268 CNS = test system: SF-268 CNS
PC-3 prostate = test system: PC-3 prostate
HCT-15 colon = test system: HCT-15 colon
CAKI-1 renal = test system: CAKI-1 renal
SF-295 CNS = test system: SF-295 CNS
OVCAR-4 ovarian = test system: OVCAR-4 ovarian
SK-MEL-2 melanoma = test system: SK-MEL-2 melanoma
UO-31 renal = test system: UO-31 renal
LOX IMVI melanoma = test system: LOX IMVI melanoma
MDA-N = test system: MDA-N
M14 melanoma = test system: M14 melanoma
ACHN renal = test system: ACHN renal
SNB-19 CNS = test system: SNB-19 CNS
HS 578T breast = test system: HS 578T breast
K-562 leukemia = test system: K-562 leukemia
NCI-H23 lung = test system: NCI-H23 lung
RXF 393 renal = test system: RXF 393 renal
MDA-MB-231 breast = test system: MDA-MB-231 breast
T-47D breast = test system: T-47D breast
HCT-116 colon = test system: HCT-116 colon
UACC-257 melanoma = test system: UACC-257 melanoma
TK-10 renal = test system: TK-10 renal
A549 NSCLC = test system: A549 NSCLC
SK-MEL-5 melanoma = test system: SK-MEL-5 melanoma
NCI-H226 lung = test system: NCI-H226 lung
HOP-62 NSCLC = test system: HOP-62 NSCLC
RPMI-8226 leukemia = test system: RPMI-8226 leukemia
MOLT-4 leukemia = test system: MOLT-4 leukemia
U251 CNS = test system: U251 CNS
SN12C renal = test system: SN12C renal
OVCAR-5 ovarian = test system: OVCAR-5 ovarian
SNB-75 CNS = test system: SNB-75 CNS
UACC-62 melanoma = test system: UACC-62 melanoma
HL-60(TB) leukemia = test system: HL-60(TB) leukemia
NCI-H522 lung = test system: NCI-H522 lung
IGROV1 ovarian = test system: IGROV1 ovarian
OVCAR-8 ovarian = test system: OVCAR-8 ovarian

Question: O=C(C=P(c1ccccc1)(c1ccccc1)c1ccccc1)c1ccc(-c2cccc([N+](=O)[O-])c2)cc1 was tested. Which TGI (A498 renal) did it give?
Answer: 9.11 µM

Question: And the TGI (EKVX NSCLC)?
Answer: 11.7 µM

Question: And the TGI (COLO 205 colon)?
Answer: 3.31 µM

Question: And the TGI (786-0 renal)?
Answer: 20.8 µM

Question: And the TGI (HT29 colon)?
Answer: 3.13 µM

Question: What about the TGI (KM12 colon) of the same compound?
Answer: 20 µM

Question: And the TGI (OVCAR-3 ovarian)?
Answer: 9.69 µM

Question: What about the TGI (MALME-3M melanoma) of the same compound?
Answer: 9.31 µM

Question: And the TGI (SF-539 CNS)?
Answer: 15.3 µM

Question: And the TGI (MDA-MB-435)?
Answer: 5.4 µM

Question: And the TGI (SK-MEL-28 melanoma)?
Answer: 18.2 µM

Question: And the TGI (CCRF-CEM leukemia)?
Answer: 7.25 µM

Question: What about the TGI (HOP-92 NSCLC) of the same compound?
Answer: 6.92 µM

Question: What about the TGI (MCF7 breast) of the same compound?
Answer: 10.6 µM

Question: What about the TGI (HCC-2998 colon) of the same compound?
Answer: 4.75 µM

Question: What about the TGI (SK-OV-3 ovarian) of the same compound?
Answer: 18.6 µM

Question: And the TGI (SR leukemia)?
Answer: 8.09 µM

Question: What about the TGI (NCI/ADR-RES ovarian) of the same compound?
Answer: 25.1 µM

Question: And the TGI (SW-620 colon)?
Answer: 14.5 µM

Question: What about the TGI (DU-145 prostate) of the same compound?
Answer: 35.1 µM

Question: And the TGI (NCI-H460 lung)?
Answer: 4.27 µM

Question: What about the TGI (SF-268 CNS) of the same compound?
Answer: > 100 µM

Question: What about the TGI (PC-3 prostate) of the same compound?
Answer: 18.6 µM

Question: And the TGI (HCT-15 colon)?
Answer: 12.7 µM

Question: And the TGI (CAKI-1 renal)?
Answer: 9.38 µM

Question: And the TGI (SF-295 CNS)?
Answer: > 100 µM

Question: And the TGI (OVCAR-4 ovarian)?
Answer: 9.52 µM

Question: And the TGI (SK-MEL-2 melanoma)?
Answer: 3.78 µM

Question: What about the TGI (UO-31 renal) of the same compound?
Answer: 4.8 µM

Question: And the TGI (LOX IMVI melanoma)?
Answer: 4.15 µM

Question: What about the TGI (MDA-N) of the same compound?
Answer: 9.09 µM

Question: And the TGI (M14 melanoma)?
Answer: 4.64 µM

Question: And the TGI (ACHN renal)?
Answer: 7.87 µM

Question: What about the TGI (SNB-19 CNS) of the same compound?
Answer: > 100 µM

Question: And the TGI (HS 578T breast)?
Answer: 22.4 µM

Question: What about the TGI (K-562 leukemia) of the same compound?
Answer: 7.98 µM

Question: What about the TGI (NCI-H23 lung) of the same compound?
Answer: 21.2 µM

Question: And the TGI (RXF 393 renal)?
Answer: 9.34 µM

Question: And the TGI (MDA-MB-231 breast)?
Answer: 8 µM

Question: And the TGI (T-47D breast)?
Answer: 27.1 µM

Question: What about the TGI (HCT-116 colon) of the same compound?
Answer: 6.24 µM

Question: And the TGI (UACC-257 melanoma)?
Answer: 15.8 µM

Question: What about the TGI (TK-10 renal) of the same compound?
Answer: 55.9 µM

Question: And the TGI (A549 NSCLC)?
Answer: 12.7 µM

Question: And the TGI (SK-MEL-5 melanoma)?
Answer: 5.91 µM

Question: What about the TGI (NCI-H226 lung) of the same compound?
Answer: 19.9 µM

Question: What about the TGI (HOP-62 NSCLC) of the same compound?
Answer: 27.6 µM

Question: What about the TGI (RPMI-8226 leukemia) of the same compound?
Answer: 3.98 µM

Question: And the TGI (MOLT-4 leukemia)?
Answer: 5.55 µM

Question: And the TGI (U251 CNS)?
Answer: 13.2 µM

Question: What about the TGI (SN12C renal) of the same compound?
Answer: 12 µM

Question: And the TGI (OVCAR-5 ovarian)?
Answer: 14.9 µM

Question: What about the TGI (SNB-75 CNS) of the same compound?
Answer: 6.86 µM

Question: What about the TGI (UACC-62 melanoma) of the same compound?
Answer: 15.9 µM

Question: And the TGI (HL-60(TB) leukemia)?
Answer: 5.08 µM

Question: COC(=O)[C@]12CC[C@H]3CN(C(=O)OCc4ccccc4)[C@H]([C@H]31)[C@H](c1ccco1)N2 was tested. Which TGI (A498 renal) did it give?
Answer: 36.3 µM

Question: What about the TGI (EKVX NSCLC) of the same compound?
Answer: > 100 µM

Question: What about the TGI (COLO 205 colon) of the same compound?
Answer: 40.9 µM

Question: What about the TGI (786-0 renal) of the same compound?
Answer: > 100 µM

Question: What about the TGI (HT29 colon) of the same compound?
Answer: > 100 µM

Question: What about the TGI (KM12 colon) of the same compound?
Answer: > 100 µM

Question: What about the TGI (OVCAR-3 ovarian) of the same compound?
Answer: > 100 µM

Question: What about the TGI (MALME-3M melanoma) of the same compound?
Answer: 80.2 µM

Question: What about the TGI (SF-539 CNS) of the same compound?
Answer: > 100 µM

Question: And the TGI (MDA-MB-435)?
Answer: 61.8 µM

Question: What about the TGI (SK-MEL-28 melanoma) of the same compound?
Answer: > 100 µM

Question: And the TGI (CCRF-CEM leukemia)?
Answer: > 100 µM

Question: What about the TGI (NCI-H522 lung) of the same compound?
Answer: 39.1 µM

Question: And the TGI (HOP-92 NSCLC)?
Answer: > 100 µM

Question: And the TGI (MCF7 breast)?
Answer: > 100 µM

Question: What about the TGI (IGROV1 ovarian) of the same compound?
Answer: > 100 µM

Question: What about the TGI (HCC-2998 colon) of the same compound?
Answer: > 100 µM

Question: What about the TGI (SK-OV-3 ovarian) of the same compound?
Answer: > 100 µM

Question: And the TGI (SR leukemia)?
Answer: > 100 µM

Question: What about the TGI (NCI/ADR-RES ovarian) of the same compound?
Answer: 51.7 µM

Question: What about the TGI (SW-620 colon) of the same compound?
Answer: > 100 µM

Question: And the TGI (DU-145 prostate)?
Answer: > 100 µM

Question: What about the TGI (NCI-H460 lung) of the same compound?
Answer: > 100 µM

Question: And the TGI (SF-268 CNS)?
Answer: > 100 µM

Question: And the TGI (PC-3 prostate)?
Answer: > 100 µM

Question: And the TGI (HCT-15 colon)?
Answer: 84.5 µM

Question: What about the TGI (CAKI-1 renal) of the same compound?
Answer: > 100 µM

Question: And the TGI (SF-295 CNS)?
Answer: > 100 µM

Question: And the TGI (OVCAR-4 ovarian)?
Answer: 31.2 µM

Question: And the TGI (SK-MEL-2 melanoma)?
Answer: > 100 µM

Question: What about the TGI (UO-31 renal) of the same compound?
Answer: > 100 µM

Question: And the TGI (LOX IMVI melanoma)?
Answer: > 100 µM

Question: And the TGI (MDA-N)?
Answer: > 100 µM

Question: What about the TGI (M14 melanoma) of the same compound?
Answer: > 100 µM

Question: What about the TGI (ACHN renal) of the same compound?
Answer: > 100 µM

Question: What about the TGI (SNB-19 CNS) of the same compound?
Answer: > 100 µM

Question: What about the TGI (HS 578T breast) of the same compound?
Answer: > 100 µM

Question: What about the TGI (K-562 leukemia) of the same compound?
Answer: > 100 µM

Question: What about the TGI (NCI-H23 lung) of the same compound?
Answer: 42.2 µM

Question: What about the TGI (RXF 393 renal) of the same compound?
Answer: > 100 µM

Question: What about the TGI (MDA-MB-231 breast) of the same compound?
Answer: > 100 µM

Question: And the TGI (T-47D breast)?
Answer: > 100 µM

Question: And the TGI (HCT-116 colon)?
Answer: > 100 µM

Question: And the TGI (UACC-257 melanoma)?
Answer: 81.4 µM

Question: What about the TGI (TK-10 renal) of the same compound?
Answer: > 100 µM

Question: What about the TGI (A549 NSCLC) of the same compound?
Answer: > 100 µM

Question: And the TGI (SK-MEL-5 melanoma)?
Answer: 37.3 µM

Question: What about the TGI (NCI-H226 lung) of the same compound?
Answer: > 100 µM

Question: What about the TGI (HOP-62 NSCLC) of the same compound?
Answer: > 100 µM

Question: And the TGI (RPMI-8226 leukemia)?
Answer: > 100 µM

Question: And the TGI (MOLT-4 leukemia)?
Answer: 64.5 µM

Question: What about the TGI (U251 CNS) of the same compound?
Answer: > 100 µM

Question: And the TGI (SN12C renal)?
Answer: > 100 µM

Question: What about the TGI (OVCAR-5 ovarian) of the same compound?
Answer: > 100 µM

Question: And the TGI (UACC-62 melanoma)?
Answer: > 100 µM

Question: What about the TGI (OVCAR-8 ovarian) of the same compound?
Answer: > 100 µM

Question: What about the TGI (HL-60(TB) leukemia) of the same compound?
Answer: 84.4 µM
